From patent US10954214B2 (Janssen Pharmaceutica NV, priority 2016, dated 2021) come the findings set out here.

A word on the IC50: it is the concentration at which inhibition is half-maximal.

For assay [1], the target named is full-length MALT1 protein (Strep-MALT1(1-824)-His) (Homo sapiens (Human), UniProt Q9UDY8). In words: MALT1 Biochemical Protease Assay (Ac-LRSR-AMC substrate). To be noted: 10 nM FL MALT1, 200 μM Ac-LRSR-AMC, 4 h at RT; read-out: MALT1_Biochemical activity (Ac-LRSR-amc) IC50. In short, it runs like this:
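Full-length MALT1 pre-incubated with compounds (30 μM to 0.5 nM, 11 threefold steps) for 50 min at RT. After Ac-LRSR-AMC was added, the reaction ran 4 h at RT and AMC fluorescence was read. IC50 and Hill slope from curve fitting against no-enzyme and no-compound controls.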

In assay [2] the test system is IL6 secretion by OCI-LY3 ABC-DLBCL cells. The assay can be described thus: Human IL6 Mesoscale assay (OCI-LY3). In kind it is cell-based. Conditions: Homo sapiens, 24 h. The method, then: (§1) NFKB signaling regulates the secretion of multiple cytokines, including IL6 and IL10. Secretion of the cytokines IL6 and IL10 by TMD8 or OCI-LY3 ABC-DLBCL cells was measured using a mesoscale assay. Inhibition of NFKB signaling by MALT1 or BTK inhibitors results in a decrease of IL6/10 secretion.
(§2) TMD8 or OCI-LY3 cells were propagated in RPMI-1640 (Sigma Aldrich) supplemented with 10% fetal bovine serum (HyClone), 1 mM sodium pyruvate (Invitrogen), 2 mM L-glutamine (Sigma Aldrich) and 1% PenStrep (Sigma Aldrich). Cell passage number should not exceed 30. Cells should be kept between 0.5-2.5 million cells per mL during culturing and cells should be supplemented every 2-3 days with fresh 50 μM beta-mercaptoenthanol. No beta-mercaptoethanol was used during the mesoscale assay.
(§3) For the Mesoscale assay, 100,000 TMD8 or OCI-LY3 cells were seeded per well into black-colored 96-well plates with clear bottom (Corning #3904) and test compounds were added in 9 dilution steps (1:2) ranging from 15 μM to 58.6 nM (final DMSO concentration 0.3%). DMSO control wells were used to determine the maximum signal (High Control (HC)). Treatment with the BTK inhibitor RN486 in a dose range from 30 nM to 131 pM (9 dilutions of 1:2) served as a positive control for NFKB pathway inhibition and was used to determine the maximum inhibition (Low Control (LC)). Compounds and cells were incubated for 24 h at 37° C. and 5% CO2 (assay volume is 150 μL). After 24 h of incubation 50 μL of the supernatant was transferred to a MSD plate (V-Plex Proinflammation Panel 1 (human) kit, Mesoscale (MSD)) and incubated for 2 h with vigorous shaking (600 rpm) at room temperature. Following incubation, plates were washed 3× with PBS+0.05% Tween-20 and 25 μL detection antibody solution (IL6 & IL10 antibodies in diluent 3 (MSD)) was added per well followed by 2 h of incubation with vigorous shaking (600 rpm) at room temperature. After 3× washes with PBS+0.05% Tween-20, plates were incubated with 150 μL 2× Read Buffer T and read on SECTOR imager.

Assay [3] has as its system IL10 secretion by OCI-LY3 ABC-DLBCL cells. In words: Human IL10 Mesoscale assay (OCI-LY3). Conditions: Homo sapiens, 24 h. The class given is cell-based. The method, then: as §1, §2, §3

Chain of full-length MALT1 protein (Strep-MALT1(1-824)-His) (Q9UDY8 whole entry): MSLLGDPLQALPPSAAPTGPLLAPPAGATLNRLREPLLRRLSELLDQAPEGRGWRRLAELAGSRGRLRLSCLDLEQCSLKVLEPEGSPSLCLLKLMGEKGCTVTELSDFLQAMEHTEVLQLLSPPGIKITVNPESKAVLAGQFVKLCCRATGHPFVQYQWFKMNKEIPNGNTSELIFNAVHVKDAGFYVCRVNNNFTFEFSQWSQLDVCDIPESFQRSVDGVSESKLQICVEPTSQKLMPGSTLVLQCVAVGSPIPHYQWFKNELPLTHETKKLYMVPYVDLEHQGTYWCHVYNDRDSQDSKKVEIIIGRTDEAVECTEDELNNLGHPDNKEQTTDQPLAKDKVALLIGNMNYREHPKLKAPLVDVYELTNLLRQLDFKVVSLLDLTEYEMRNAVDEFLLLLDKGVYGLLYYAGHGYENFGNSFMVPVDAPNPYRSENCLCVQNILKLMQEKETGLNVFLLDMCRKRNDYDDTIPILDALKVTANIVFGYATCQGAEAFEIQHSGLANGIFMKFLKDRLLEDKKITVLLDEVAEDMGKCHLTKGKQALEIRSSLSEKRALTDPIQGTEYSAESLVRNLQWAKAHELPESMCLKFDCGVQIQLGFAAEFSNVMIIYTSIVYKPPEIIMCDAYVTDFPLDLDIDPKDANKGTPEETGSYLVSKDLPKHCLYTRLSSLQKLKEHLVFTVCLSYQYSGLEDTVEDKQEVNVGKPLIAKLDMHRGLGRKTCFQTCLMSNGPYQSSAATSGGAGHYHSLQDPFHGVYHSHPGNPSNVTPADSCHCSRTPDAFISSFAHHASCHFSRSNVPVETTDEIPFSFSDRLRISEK

Consider `Cn1nc(-n2ncc(C(=O)Nc3cnc(-n4nccn4)c(C#N)c3)c2C(F)(F)F)c2ccccc21` [Cpd 266, N-(5-cyano-6-(2H-1,2,3-triazol-2-yl)pyridin-3-yl)-1-(1-methyl-1H-indazol-3-yl)-5-(trifluoromethyl)-1H-pyrazole-4-carboxamide], for which the IC50 in assay [1] was 158 nM; in assay [2] it was 186 nM; in assay [3] it was 178 nM.
Turning to `N#Cc1cc(NC(=O)c2cnn(-c3ccnc4cccnc34)c2C(F)(F)F)cnc1-n1nccn1` [Cpd 269, N-(5-cyano-6-(2H-1,2,3-triazol-2-yl)pyridin-3-yl)-1-(1,5-naphthyridin-4-yl)-5-(trifluoromethyl)-1H-pyrazole-4-carboxamide], the results for the IC50 in assay [1], in assay [2] and in assay [3] were 155 nM, 83 nM and 85 nM, respectively.
The matching figures for `CN(C)Cc1cnnn1-c1ncc(NC(=O)c2cnn(-c3cccc4ncccc34)c2C(F)(F)F)cc1Cl` [Cpd 270, N-(5-chloro-6-(5-((dimethylamino)methyl)-1H-1,2,3-triazol-1-yl)pyridin-3-yl)-1-(quinolin-5-yl)-5-(trifluoromethyl)-1H-pyrazole-4-carboxamide]: 145 nM, 170 nM and 98 nM.
Take `Cc1nc2cccc(-n3ncc(C(=O)Nc4cnc(-n5nccn5)c(C#N)c4)c3C(F)(F)F)c2o1` [Cpd 271, N-(5-cyano-6-(2H-1,2,3-triazol-2-yl)pyridin-3-yl)-1-(2-methylbenzo[d]oxazol-7-yl)-5-(trifluoromethyl)-1H-pyrazole-4-carboxamide]: the figures for the IC50 in assay [1], in assay [2] and in assay [3] were 145 nM, 112 nM and 95 nM, respectively.
As to `NCc1cnn(-c2ncc(NC(=O)c3cnn(-c4cccc5ncccc45)c3C(F)(F)F)cc2Cl)n1` [Cpd 272, N-(6-(4-(aminomethyl)-2H-1,2,3-triazol-2-yl)-5-chloropyridin-3-yl)-1-(quinolin-5-yl)-5-(trifluoromethyl)-1H-pyrazole-4-carboxamide], the IC50 in assay [1] is 145 nM; in assay [2], 126 nM; in assay [3], 87 nM.
The matching figures for `Cn1ccc(-c2ncc(NC(=O)c3cnn(-c4ccc(F)c5ncccc45)c3C(F)(F)F)cc2Cl)n1` [Cpd 273, N-(5-chloro-6-(1-methyl-1H-pyrazol-3-yl)pyridin-3-yl)-1-(8-fluoroquinolin-5-yl)-5-(trifluoromethyl)-1H-pyrazole-4-carboxamide]: 145 nM, 85 nM and 66 nM.
The like results for `N#Cc1cc(NC(=O)c2cnn(-c3cccc4ncnn34)c2C(F)(F)F)cnc1-n1nccn1` [Cpd 274, 1-([1,2,4]triazolo[1,5-a]pyridin-5-yl)-N-(5-cyano-6-(2H-1,2,3-triazol-2-yl)pyridin-3-yl)-5-(trifluoromethyl)-1H-pyrazole-4-carboxamide] were, in that order, 141 nM, 2750 nM and 3160 nM.
For `N#Cc1cc(NC(=O)c2cnn(-c3ccnc4cnccc34)c2C(F)(F)F)cnc1-n1nccn1` [Cpd 276, N-(5-cyano-6-(2H-1,2,3-triazol-2-yl)pyridin-3-yl)-1-(1,7-naphthyridin-4-yl)-5-(trifluoromethyl)-1H-pyrazole-4-carboxamide], the IC50 in assay [1] is 138 nM; in assay [2], 186 nM; in assay [3] it was 117 nM.
The matching figures for `Nc1nc2cccc(-n3ncc(C(=O)Nc4cnc(-n5nccn5)c(Cl)c4)c3C(F)(F)F)c2s1` [Cpd 278, 1-(2-aminobenzo[d]thiazol-7-yl)-N-(5-chloro-6-(2H-1,2,3-triazol-2-yl)pyridin-3-yl)-5-(trifluoromethyl)-1H-pyrazole-4-carboxamide]: 129 nM, 141 nM and 219 nM.
The matching figures for `N#Cc1cc(NC(=O)c2cnn(-c3cccc4nc(N)sc34)c2C(F)(F)F)cnc1-n1nccn1` [Cpd 282, 1-(2-aminobenzo[d]thiazol-7-yl)-N-(5-cyano-6-(2H-1,2,3-triazol-2-yl)pyridin-3-yl)-5-(trifluoromethyl)-1H-pyrazole-4-carboxamide]: 123 nM, 741 nM and 417 nM.
The like results for `O=C(Nc1cnc(-n2ccnn2)c(C(F)(F)F)c1)c1cnn(-c2cccc3ncccc23)c1C(F)(F)F` [Cpd 283, N-(6-(1H-1,2,3-triazol-1-yl)-5-(trifluoromethyl)pyridin-3-yl)-1-(quinolin-5-yl)-5-(trifluoromethyl)-1H-pyrazole-4-carboxamide] were, in that order, 123 nM, 851 nM and 550 nM.
Turning to `O=C(Nc1cnc(-n2nccn2)c(Cl)c1)c1cnn(-c2noc3ccccc23)c1C(F)(F)F` [Cpd 284, 1-(benzo[d]isoxazol-3-yl)-N-(5-chloro-6-(2H-1,2,3-triazol-2-yl)pyridin-3-yl)-5-(trifluoromethyl)-1H-pyrazole-4-carboxamide], the IC50 was 120 nM in assay [1], 589 nM in assay [2] and 724 nM in assay [3].
On to `O=C(Nc1cnc(-n2nccn2)c(Cl)c1)c1cnn(-c2cnc(Cl)c3ccccc23)c1C(F)(F)F` [Cpd 285, N-(5-chloro-6-(2H-1,2,3-triazol-2-yl)pyridin-3-yl)-1-(1-chloroisoquinolin-4-yl)-5-(trifluoromethyl)-1H-pyrazole-4-carboxamide], for which the IC50 in assay [1] came to 112 nM; in assay [2], 229 nM; in assay [3], 204 nM.
With `N#Cc1cc(NC(=O)c2cnn(-c3cccc4cn[nH]c34)c2C(F)(F)F)cnc1-n1nccn1` [Cpd 286, N-(5-cyano-6-(2H-1,2,3-triazol-2-yl)pyridin-3-yl)-1-(1H-indazol-7-yl)-5-(trifluoromethyl)-1H-pyrazole-4-carboxamide], the IC50 in assay [1] amounted to 110 nM; in assay [2], 200 nM; in assay [3], 200 nM.
`O=C(Nc1cnc(-n2ccnn2)c(Br)c1)c1cnn(-c2cccc3ncccc23)c1C(F)(F)F` [Cpd 287, N-(5-bromo-6-(1H-1,2,3-triazol-1-yl)pyridin-3-yl)-1-(quinolin-5-yl)-5-(trifluoromethyl)-1H-pyrazole-4-carboxamide]: the IC50 in assay [1] was 95 nM; in assay [2], 229 nM; in assay [3], 234 nM.
The like results for `O=C(Nc1cnc(-c2ncco2)c(Cl)c1)c1cnn(-c2ccc(F)c3ncccc23)c1C(F)(F)F` [Cpd 288, N-(5-chloro-6-(oxazol-2-yl)pyridin-3-yl)-1-(8-fluoroquinolin-5-yl)-5-(trifluoromethyl)-1H-pyrazole-4-carboxamide] were, in that order, 95 nM, 251 nM and 91 nM.
`N#Cc1cc(NC(=O)c2cnn(-c3cnc(F)c4ccccc34)c2C(F)(F)F)cnc1-n1nccn1` [Cpd 289, N-(5-cyano-6-(2H-1,2,3-triazol-2-yl)pyridin-3-yl)-1-(1-fluoroisoquinolin-4-yl)-5-(trifluoromethyl)-1H-pyrazole-4-carboxamide]: the IC50 amounted to 91 nM in assay [1], 132 nM in assay [2] and 123 nM in assay [3].
With `O=C(Nc1cnc(-n2nccn2)c(Cl)c1)c1cnn(-c2nsc3ccccc23)c1C(F)(F)F` [Cpd 290, 1-(benzo[d]isothiazol-3-yl)-N-(5-chloro-6-(2H-1,2,3-triazol-2-yl)pyridin-3-yl)-5-(trifluoromethyl)-1H-pyrazole-4-carboxamide], the IC50 in assay [1] worked out at 81 nM; in assay [2] it was 186 nM; in assay [3] it was 110 nM.
The like results for `N#Cc1cc(NC(=O)c2cnn(-c3cccc4nc(F)ccc34)c2C(F)(F)F)cnc1-n1nccn1` [Cpd 291, N-(5-cyano-6-(2H-1,2,3-triazol-2-yl)pyridin-3-yl)-1-(2-fluoroquinolin-5-yl)-5-(trifluoromethyl)-1H-pyrazole-4-carboxamide] were, in that order, 81 nM, 110 nM and 100 nM.
The matching figures for `N#Cc1cc(NC(=O)c2cnn(-c3ncnc4occc34)c2C(F)(F)F)cnc1-n1nccn1` [Cpd 292, N-(5-cyano-6-(2H-1,2,3-triazol-2-yl)pyridin-3-yl)-1-(furo[2,3-d]pyrimidin-4-yl)-5-(trifluoromethyl)-1H-pyrazole-4-carboxamide]: 79 nM, 151 nM and 115 nM.
